Measured values taken from patent US8318762B2, “Pyrazolospiroketone acetyl-CoA carboxylase inhibitors” (Pfizer Inc., priority 2008, dated 2012).
pIC50: −log10 of the molar value. One block for each compound: values may come before it.

Legend:
rat liver ACC = rat liver ACC (Rattus norvegicus, UniProt P11497); type: biochemical; settings: rat liver ACC radio enzymatic assay
Description: [1] Preparation of rat liver ACC. Rat liver ACC was obtained from rat liver based upon standard procedures such as those described by Thampy and Wakil (J. Biol. Chem. 260: 6318-6323; 1985) using the following method.
Male CD rats weighing 150-200 g were fasted for 18-24 hours and then fed a high sucrose diet (AIN-76A rodent diet; Cat # D10001, Research Diets Inc., New Brunswick, N.J.), for 3 days at which time they were sacrificed by CO2 asphyxiation. The livers were removed, rinsed in ice-cold phosphate-buffered saline (PBS), and homogenized in 5 volumes of homogenization buffer (50 mM potassium phosphate, pH 7.5, 10 mM EDTA, 10 mM 2-mercaptoethanol, 2 mM benzamidine, 0.2 mM phenylmethylsulfonylfluoride (PMSF), 5 mg/L each leupeptin, aprotinin, and antitrypsin) in a Waring® blender for 1 minute at 4° C. All subsequent operations were carried out at 4° C. The homogenate has made 3% with respect to polyethylene glycol (PEG) by the addition of 50% PEG solution and centrifuged at 20,000×g for 15 minutes. The resulting supernatant was adjusted to 5% PEG with the addition of 50% PEG solution and stirred for 5 minutes. The pellet (contains ACC activity) was collected by centrifugation at 20,000×g for 20 minutes, rinsed with ice-cold doubly distilled water to remove excess PEG and re-suspended in one-fourth the original homogenate volume with homogenization buffer. Ammonium sulfate (200 g/liter) was slowly added with stirring. After 45 minutes the enzyme is collected by centrifugation for 30 minutes at 20,000×g, re-suspended in 10 mL of 50 mM HEPES, pH7.5, 0.1 mM DTT, 1.0 mM EDTA, and 10% glycerol and desalted on a Sephadex™ G-25 column (2.5 cm×50 cm) (Pharmacia, Piscataway N.J. now GE Healthcare) equilibrated with the same buffer. The desalted enzyme preparation was stored in aliquots at −70° C. Immediately prior to use, frozen rat liver ACC aliquots were thawed, diluted to 500 μg/mL in buffer containing 50 mM HEPES, pH7.5, 10 mM MgCl2, 10 mM tripotassium citrate, 2.0 mM dithiothreitol (DTT), and 0.75 mg/mL fatty acid-free bovine serum albumin (BSA) and pre-incubated at 37° C. for 30 minutes.
[2] Measurement of rat liver ACC inhibition. For measurement of ACC activity and assessment of ACC inhibition, test compounds were dissolved in dimethylsulfoxide (DMSO) and 1 μL aliquots were added to a clear bottom, 96-well plates (Perkin-Elmer PN#1450-514). Control wells contain 1 μL of DMSO alone or 1 μL of high inhibition compound. The enzyme obtained from rat liver as described above was activated in Enzyme buffer at 37° C. for 30 minutes prior to addition to compound plate. All wells receive 75 μL of activated enzyme (1.33×) in a buffer containing 50 mM HEPES, pH7.5, 7.5 mM MgCl2 7.5 mM tripotassium citrate, 2 mM DTT, 50 mg/mL BSA. The activated enzyme was pre-incubated with the cmpd for 10 minute prior to initiating the reaction through the addition of 25 μL of substrate solution containing 50 mM HEPES, pH7.5, 7.5 mM MgCl2 7.5 mM tripotassium citrate, 2 mM DTT, 50 mg/mL BSA, 120 μM acetyl-CoA, 8.0 mM ATP, 38.4 mM KHCO3, and 1.6 mM NaH[^14C]O3 ([…]). The final substrate concentrations in the reaction were 30 μM Acetyl-CoA, 9.6 mM KHCO3, 0.4 mM NaH[^14C]O3, and 2 mM ATP. The reaction was terminated after 10 mins by the addition of 25 μL 3N HCl and the plates were dried at 50° C. for a minimum 20 hrs. 30 μL of water was added to the dried plate and mixed for 5 minutes. 95 μL of Optiphase Supermix liquid scintillation fluid (Perkin Elmer, Waltham, Mass.) was added and the plates are mixed for 20 minutes. Incorporation of ^14C into MCoA was measured using a Wallac Trilux 1450 Microbeta LSC luminescence counter.

recombinant human ACC2 = target: T1, recombinant human ACC2 (Homo sapiens, UniProt O00763); test: Measurement of human ACC2 inhibition (recombinant hACC2 Transcreener ADP detection FP assay); type: biochemical; settings: recombinant hACC2 transcreener assay; read-out: rhACC2 IC50
T1 construct: a full length Cytomax clone of ACC2 was purchased from Cambridge Bioscience Limited; made in house; host or cells: CHO cells (tetracycline induction, pcDNA5 FRT TO-TOPO); purified on a Softlink Soft Release Avidin column
T1 sequence (O00763 whole entry): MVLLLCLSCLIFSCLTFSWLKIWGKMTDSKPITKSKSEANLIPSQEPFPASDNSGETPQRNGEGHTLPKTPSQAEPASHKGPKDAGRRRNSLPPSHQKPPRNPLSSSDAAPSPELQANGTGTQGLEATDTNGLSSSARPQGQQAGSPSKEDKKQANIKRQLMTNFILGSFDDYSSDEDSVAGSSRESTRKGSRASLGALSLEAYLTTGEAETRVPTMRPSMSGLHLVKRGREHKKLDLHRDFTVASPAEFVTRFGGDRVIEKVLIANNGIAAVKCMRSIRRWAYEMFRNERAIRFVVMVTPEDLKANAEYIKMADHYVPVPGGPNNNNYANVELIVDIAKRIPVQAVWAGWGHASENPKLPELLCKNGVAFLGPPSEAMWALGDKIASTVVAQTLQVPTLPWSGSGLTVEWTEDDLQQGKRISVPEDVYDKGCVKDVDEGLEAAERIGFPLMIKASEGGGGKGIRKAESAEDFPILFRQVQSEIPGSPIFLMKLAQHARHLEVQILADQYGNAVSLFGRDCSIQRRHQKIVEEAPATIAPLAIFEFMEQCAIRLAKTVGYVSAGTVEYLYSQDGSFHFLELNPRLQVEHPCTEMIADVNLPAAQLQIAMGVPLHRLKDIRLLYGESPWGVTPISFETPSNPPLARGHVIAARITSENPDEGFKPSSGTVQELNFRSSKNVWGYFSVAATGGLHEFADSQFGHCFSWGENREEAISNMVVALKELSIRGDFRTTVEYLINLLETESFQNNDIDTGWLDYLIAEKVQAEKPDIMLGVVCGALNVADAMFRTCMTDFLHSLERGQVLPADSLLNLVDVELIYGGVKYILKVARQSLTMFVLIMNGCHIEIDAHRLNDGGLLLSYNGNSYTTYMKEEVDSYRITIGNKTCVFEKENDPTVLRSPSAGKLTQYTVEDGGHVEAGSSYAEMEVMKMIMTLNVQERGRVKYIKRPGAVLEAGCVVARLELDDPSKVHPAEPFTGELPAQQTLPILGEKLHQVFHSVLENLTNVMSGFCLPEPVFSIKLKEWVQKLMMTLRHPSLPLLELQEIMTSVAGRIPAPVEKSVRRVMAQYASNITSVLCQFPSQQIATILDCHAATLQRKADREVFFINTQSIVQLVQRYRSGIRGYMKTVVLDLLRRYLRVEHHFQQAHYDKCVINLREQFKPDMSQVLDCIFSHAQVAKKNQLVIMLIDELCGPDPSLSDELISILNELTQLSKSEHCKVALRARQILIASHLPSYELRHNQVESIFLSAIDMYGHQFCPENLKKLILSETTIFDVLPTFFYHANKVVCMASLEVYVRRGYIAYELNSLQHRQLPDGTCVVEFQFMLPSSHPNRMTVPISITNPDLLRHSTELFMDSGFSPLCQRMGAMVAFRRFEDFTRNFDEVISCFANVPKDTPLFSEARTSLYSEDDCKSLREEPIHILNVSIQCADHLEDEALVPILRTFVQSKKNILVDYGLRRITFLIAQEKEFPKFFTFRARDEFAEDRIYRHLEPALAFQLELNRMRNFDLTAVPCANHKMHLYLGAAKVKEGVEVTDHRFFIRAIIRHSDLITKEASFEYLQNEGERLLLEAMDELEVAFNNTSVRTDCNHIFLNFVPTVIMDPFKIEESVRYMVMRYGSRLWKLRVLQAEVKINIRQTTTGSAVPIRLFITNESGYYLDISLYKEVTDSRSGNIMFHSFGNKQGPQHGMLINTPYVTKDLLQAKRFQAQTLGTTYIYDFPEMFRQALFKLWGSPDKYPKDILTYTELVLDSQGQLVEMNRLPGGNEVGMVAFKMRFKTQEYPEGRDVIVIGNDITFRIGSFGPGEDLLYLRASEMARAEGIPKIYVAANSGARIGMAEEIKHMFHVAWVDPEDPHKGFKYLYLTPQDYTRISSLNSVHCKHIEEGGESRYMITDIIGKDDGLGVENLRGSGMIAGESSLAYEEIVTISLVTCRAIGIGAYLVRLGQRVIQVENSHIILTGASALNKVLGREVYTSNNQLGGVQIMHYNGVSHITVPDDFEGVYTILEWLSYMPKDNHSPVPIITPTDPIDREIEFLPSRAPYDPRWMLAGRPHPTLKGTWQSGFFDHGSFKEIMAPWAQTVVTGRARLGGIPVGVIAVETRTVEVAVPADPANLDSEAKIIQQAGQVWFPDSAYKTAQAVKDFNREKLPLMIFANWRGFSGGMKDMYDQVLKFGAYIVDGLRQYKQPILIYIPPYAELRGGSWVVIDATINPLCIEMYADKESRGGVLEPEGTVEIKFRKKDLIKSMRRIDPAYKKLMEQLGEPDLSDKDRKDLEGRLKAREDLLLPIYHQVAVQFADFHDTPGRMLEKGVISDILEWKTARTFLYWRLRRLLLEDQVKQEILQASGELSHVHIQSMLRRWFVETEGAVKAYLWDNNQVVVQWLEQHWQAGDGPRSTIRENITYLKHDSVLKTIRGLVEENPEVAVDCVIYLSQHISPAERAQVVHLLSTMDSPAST
How it was run: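 Purified hACC2 from tetracycline-induced CHO cells (avidin-column eluate) was run in 50 mM HEPES pH7.5, 5 mM MgCl2, 5 mM citrate, 2 mM DTT, 0.5 mg/mL BSA with 30 μM acetyl-CoA, 50 μM ATP and 8 mM KHCO3. Reaction lasted 1 hour at room temperature; ADP was detected by Transcreener FP after another 1 hour.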

[1] = test system: malonyl-CoA levels in liver; test: Acute in vivo assessment of ACC inhibition: malonyl-CoA levels in liver tissue; design: species or system male Sprague-Dawley Rats; settings: relative to chow-fed vehicle control group, % decrease +/- SEM
Description: (§1) The ACC inhibitory activity of the compound of the present invention can be confirmed in vivo by evaluation of their ability to reduce malonyl-CoA levels in liver and muscle tissue from treated animals.
(§2) Measurement of malonyl-CoA production inhibition in experimental animals. In this method, male Sprague-Dawley Rats, maintained on standard chow and water ad libitum (225-275 g), were randomized prior to the study. Animals were either fed, or fasted for 18 hours prior to the beginning of the experiment. Two hours into the light cycle the animals were orally dosed with a volume of 5 mL/kg, (0.5% methyl cellulose; vehicle) or with the appropriate compound (prepared in vehicle). Fed vehicle controls were included to determine baseline tissue malonyl-CoA levels while fasted animals were included to determine the effect fasting had on malonyl-CoA levels. One hour after compound administration the animals were asphyxiated with CO2 and the tissues were removed. Specifically, blood was collected by cardiac puncture and placed into BD Microtainer tubes containing EDTA (BD Biosciences, NJ), mixed, and placed on ice. Plasma was used to determine drug exposure. Liver and quadriceps were removed, immediately freeze-clamped, wrapped in foil and stored in liquid nitrogen.
(§3) Tissues were pulverized under liquid N2 to ensure uniformity in sampling. Malonyl-CoA was extracted from the tissue (150-200 mg) with 5 volumes 10% […] in Lysing Matrix A (MP Biomedicals, PN 6910) in a FastPrep FP120 (Thermo Scientific, speed=5.5; for 45 seconds). The supernatant containing malonyl-CoA was removed from the cell debris after centrifugation at 15000×g for 30 minutes (Eppendorf Centrifuge 5402). Samples were stably frozen at −80 C until analysis is completed.
(§4) Analysis of malonyl CoA levels in liver and muscle tissue can be evaluated using the following methodology.
(§5) The method utilizes the following materials: Malonyl-CoA tetralithium salt and malonyl-^13C3-CoA trilithium salt which were purchased from Isotec (Miamisburg, Ohio, USA), sodium perchlorate (Sigma, cat no. 410241), trichloroacetic acid (ACROS, cat no. 42145), phosphoric acid (J. T. Baker, cat no. 0260-01), ammonium formate (Fluke, cat no. 17843), methanol (HPLC grade, J. T. Baker, cat no. 9093-33), and water (HPLC grade, J. T. Baker, 4218-03) were used to make the necessary mobile phases. Strata-X on-line solid phase extraction columns, 25 μm, 20 mm×2.0 mm I.D (cat no. 00M-S033-B0-CB) were obtained from Phenomenex (Torrance, Calif., USA). SunFire C18 reversed-phase columns, 3.5 μm, 100 mm×3.0 mm I.D. (cat no. 186002543) were purchased from Waters Corporation (Milford, Mass., USA).
(§6) This method may be performed utilizing the following equipment. Two-dimensional chromatography using an Agilent 1100 binary pump, an Agilent 1100 quaternary pump and two Valco Cheminert 6-port two position valves. Samples were introduced via a LEAP HTC PAL auto sampler with Peltier cooled stack maintained at 10° C. and a 20 μL sampling loop. The needle wash solutions for the autosampler are 10% trichloroacetic acid in water (w/v) for Wash 1 and 90:10 methanol:water for Wash 2. The analytical column (Sunfire) was maintained at 35° C. using a MicroTech Scientific Micro-LC Column Oven. The eluant was analyzed on an ABI Sciex API3000 triple quadrupole mass spectrometer with Turbo Ion Spray.
(§7) Two-dimensional chromatography was performed in parallel using distinct gradient elution conditions for on-line solid phase extraction and reversed-phase chromatography. The general design of the method was such that the first dimension was utilized for sample clean-up and capture of the analyte of interest followed by a brief coupling of both dimensions for elution from the first dimension onto the second dimension. The dimensions were subsequently uncoupled allowing for gradient elution of the analyte from the second dimension for quantification while simultaneously preparing the first dimension for the next sample in the sequence. […]

[2] = test system: malonyl-CoA levels in muscle tissue; test: Acute in vivo assessment of ACC inhibition: malonyl-CoA levels in muscle tissue (quadriceps); design: species or system male Sprague-Dawley Rats; settings: relative to chow-fed vehicle control group, % decrease +/- SEM
Description: as §1, §2, §3, §4, §5, §6, §7

Compound: CCn1nc2c(c1C)OC1(CCN(C(=O)c3cc(C)c4[nH]nc(C)c4c3)CC1)CC2=O [1.001]
pIC50 (recombinant human ACC2): 7.96
Percent decrease in Liver Malonyl-CoA ([1]; dose 1 mg/kg): 28.29 (8.40) %
Percent decrease in Liver Malonyl-CoA ([1]; dose 3 mg/kg): 30.37 (11.50) %
Percent decrease in Liver Malonyl-CoA ([1]; dose 10 mg/kg): 45.45 (3.51) %
Percent decrease in Liver Malonyl-CoA ([1]; dose 30 mg/kg): 54.31 (7.63) %
Percent decrease in Muscle Malonyl-CoA (quadriceps) ([2]; dose 1 mg/kg): 5.69 (8.73) %
Percent decrease in Muscle Malonyl-CoA (quadriceps) ([2]; dose 3 mg/kg): 2.90 (4.29) %
Percent decrease in Muscle Malonyl-CoA (quadriceps) ([2]; dose 10 mg/kg): 22.83 (5.72) %
Percent decrease in Muscle Malonyl-CoA (quadriceps) ([2]; dose 30 mg/kg): 48.03 (2.63) %

Compound: CCn1cc2c(n1)C(=O)CC1(CCN(C(=O)c3cc(C)c4[nH]nc(C)c4c3)CC1)O2 [1.003]
pIC50 (recombinant human ACC2): 7.96
Percent decrease in Liver Malonyl-CoA ([1]; dose 1 mg/kg): 31.45 (4.12) %
Percent decrease in Liver Malonyl-CoA ([1]; dose 3 mg/kg): 47.61 (4.70) %
Percent decrease in Liver Malonyl-CoA ([1]; dose 10 mg/kg): 67.40 (5.67) %
Percent decrease in Liver Malonyl-CoA ([1]; dose 30 mg/kg): 70.47 (2.48) %
Percent decrease in Muscle Malonyl-CoA (quadriceps) ([2]; dose 1 mg/kg): −3.72 (8.87) %
Percent decrease in Muscle Malonyl-CoA (quadriceps) ([2]; dose 3 mg/kg): 21.23 (8.81) %
Percent decrease in Muscle Malonyl-CoA (quadriceps) ([2]; dose 10 mg/kg): 33.30 (4.83) %
Percent decrease in Muscle Malonyl-CoA (quadriceps) ([2]; dose 30 mg/kg): 48.81 (3.51) %

Compound: Cc1n[nH]c2c(C)cc(C(=O)N3CCC4(CC3)CC(=O)c3nn(C(C)(C)C)cc3O4)cc12 [1.012]
pIC50 (recombinant human ACC2): 8.70
Percent decrease in Liver Malonyl-CoA ([1]; dose 1 mg/kg): 40.32 (6.24) %
Percent decrease in Liver Malonyl-CoA ([1]; dose 3 mg/kg): 54.87 (3.22) %
Percent decrease in Liver Malonyl-CoA ([1]; dose 10 mg/kg): 75.72 (2.47) %
Percent decrease in Liver Malonyl-CoA ([1]; dose 30 mg/kg): 86.52 (1.49) %
Percent decrease in Muscle Malonyl-CoA (quadriceps) ([2]; dose 1 mg/kg): 31.53 (3.58) %
Percent decrease in Muscle Malonyl-CoA (quadriceps) ([2]; dose 3 mg/kg): 43.01 (4.24) %
Percent decrease in Muscle Malonyl-CoA (quadriceps) ([2]; dose 10 mg/kg): 59.48 (5.28) %
Percent decrease in Muscle Malonyl-CoA (quadriceps) ([2]; dose 30 mg/kg): 71.08 (2.18) %

Compound: Cc1cc(C(=O)N2CCC3(CC2)CC(=O)c2nn(C(C)(C)C)cc2O3)cc2cn[nH]c12 [1.042]
pIC50 (recombinant human ACC2): 8.40
Percent decrease in Liver Malonyl-CoA ([1]; dose 1 mg/kg): 41.87 (2.70) %
Percent decrease in Liver Malonyl-CoA ([1]; dose 3 mg/kg): 48.07 (8.08) %
Percent decrease in Liver Malonyl-CoA ([1]; dose 10 mg/kg): 71.81 (2.36) %
Percent decrease in Liver Malonyl-CoA ([1]; dose 30 mg/kg): 86.50 (0.72) %
Percent decrease in Muscle Malonyl-CoA (quadriceps) ([2]; dose 1 mg/kg): 29.90 (5.21) %
Percent decrease in Muscle Malonyl-CoA (quadriceps) ([2]; dose 3 mg/kg): 27.60 (5.87) %
Percent decrease in Muscle Malonyl-CoA (quadriceps) ([2]; dose 10 mg/kg): 61.60 (5.38) %
Percent decrease in Muscle Malonyl-CoA (quadriceps) ([2]; dose 30 mg/kg): 74.70 (1.37) %

Compound: Cc1cc(C(=O)N2CCC3(CC2)CC(=O)c2nn(C4CCC4)cc2O3)cc2[nH]cnc12 [3.006]
pIC50 (recombinant human ACC2): 7.26

Compound: CCn1nc2c(c1C)OC1(CCN(C(=O)c3cc(OC)c4[nH]ncc4c3)CC1)CC2=O [1.052]
pIC50 (recombinant human ACC2): 7.48

Compound: CCc1n[nH]c2c(Cl)cc(C(=O)N3CCC4(CC3)CC(=O)c3nn(CC)cc3O4)cc12 [1.101]
pIC50 (recombinant human ACC2): 7.35

Compound: CCc1c2c(nn1C)C(=O)CC1(CCN(C(=O)c3cc(C)c4[nH]nc(C)c4c3)CC1)O2 [1.007]
pIC50 (recombinant human ACC2): 6.72

Further lines, results first:

pIC50 (rat liver ACC): 8.05
pIC50 (recombinant human ACC2): 7.54
Compound: CCn1nc2c(c1C)OC1(CCN(C(=O)c3cc(C)c4[nH]cc(C)c4c3)CC1)CC2=O [4.001]

pIC50 (recombinant human ACC2): 8.05
Compound: CC(C)(C)n1cc2c(n1)C(=O)CC1(CCN(C(=O)c3ccc4c(=O)[nH]ccc4c3)CC1)O2 [19.001]

pIC50 (recombinant human ACC2): 7.08
Compound: COc1cc(C(=O)N2CCC3(CC2)CC(=O)c2nn(C(C)C)cc2O3)cc2nc(C)oc12 [9.004]

pIC50 (recombinant human ACC2): 7.48
Compound: CC(C)(C)n1cc2c(n1)C(=O)CC1(CCN(C(=O)c3ccc4c(c3)CCC(=O)N4)CC1)O2 [13.004]

pIC50 (recombinant human ACC2): 7.26
Compound: Cc1noc2cc(C(=O)N3CCC4(CC3)CC(=O)c3nn(C(C)(C)C)cc3O4)ccc12 [23.002]

pIC50 (recombinant human ACC2): 6.47
Compound: CCn1nc2c(c1C)OC1(CCN(C(=O)c3ccc4c(C)noc4c3)CC1)CC2=O [23.003]
